# Measured values as given in US9949970B2, “Synthesis of new benzothiazole derivatives as potential anti-tubercular agents” (priority 2010, dated 2018).
# Where two headings read alike, the source gives them in different places.
# Columns and labels:
# M. tuberculosis H37Rv [1] = assay: Antimycobacterial activity: MIC by broth microdilution / Nitrate Reductase Assay; format: cell-based, Mycobacterium tuberculosis; conditions: lowest concentration showing no colour change (NRA)
# M. tuberculosis H37Rv [2] = conditions: closest benzothiazole compounds; cited from earlier work
# AML-12 cell lines = assay: Cytotoxicity MTT assay on AML-12 cell lines; format: cell-based; conditions: for Cytotoxicity: AML-12 cell line, MTT, 24 hrs, test material 2-100 μg/ml; for Cytotoxicity (result in words): AML-12 cell lines, MTT assay
# Procedure: The potent compounds 3j, 4e, 6a, 6f, 6g, 6i, and 6p were evaluated for cytotoxic effect on AML-12 cell lines using MTT assay, in a 96 well plate format. Cells were incubated in Dulbecco's Modified Eagle's Medium (DMEM) containing 10% fetal calf serum (FCS) with the test material (2-100 μg/ml) for 24 hrs. at 37° C. in CO2 incubator. After the completion of incubation 3-(4,5-dimethylthiazol-2-yl)-2,5-diphenyltetrazolium bromide (MTT) was added and cells were further incubated for 3 h at 37° C. in CO2 incubator. Formation of formazan salt by mitochondrial dehydrogenases, and was determined by Elisa reader at 565 nm (Multiskan Spectrum; Thermo Electron Corporation, USA). The percentage cytotoxicity was calculated with respect to the untreated cells.
# M. tuberculosis (H37Rv) = assay: In vivo efficacy in lungs of infected mice; set-up: species or system Swiss albino mice; conditions: for In vivo activity (result in words) / Decrease of bacterial load in lung with late control (protections): mice; for In vivo activity (result in words): lung; for Decrease of bacterial load in lung with late control (protections): versus late control; for Log10 CFU/left Lung: infected female Swiss albino mice
# [3] = Mycobacterium tuberculosis, H37RV, read-out: MIC
# [4] = Mycobacterium tuberculosis, H37RV
compound,measurement,setting,value
"O=[N+]([O-])c1ccc(C=NNc2nc3ccccc3s2)o1 [Compound 3a, 5-nitro-2-furaldehyde 2-(1,3-benzothiazole-2-yl)hydrazone]",MIC,M. tuberculosis H37Rv [1]; [3],> 16 µg/mL
COC(=O)[C@H](NC(=O)c1cc(COc2ccc3nc(C)sc3c2)on1)c1ccccc1,MIC,M. tuberculosis H37Rv [2],1.9 µg/mL
"O=[N+]([O-])c1ccc(C=NNc2nc3ccc(OC(F)(F)F)cc3s2)o1 [Compound 3i, 5-nitro-2-furaldehyde 2-(6-trifluoromethoxy-1,3-benzothiazole-2-yl)hydrazone]",MIC,M. tuberculosis H37Rv [1]; [3],> 16 µg/mL
COC(=O)C(NC(=O)c1cc(COc2ccc3nc(C)sc3c2)on1)c1ccccc1 (stereo not shown),MIC,M. tuberculosis H37Rv [2],1.4 µg/mL
"O=C(Nc1nc2ccc(NC(=O)c3ccc([N+](=O)[O-])o3)cc2s1)c1ccccc1 [Compound 6a, N2-[2-(benzoylamino)-1,3-benzothiazol-6-yl]-5-nitrofuramide]",MIC,M. tuberculosis H37Rv [1]; [3],0.5 to 8 µg/mL
same,MIC,M. tuberculosis H37Rv [1],1 µg/mL
same,Cytotoxicity,AML-12 cell lines,>100 µg/mL
same,Cytotoxicity (result in words),AML-12 cell lines,no cytotoxicity
O=[N+]([O-])c1cc(CSc2nc3ccccc3s2)cc([N+](=O)[O-])c1,MIC,M. tuberculosis H37Rv [2],2 µg/mL
"O=C(Nc1nc2ccc(NC(=O)c3ccc([N+](=O)[O-])o3)cc2s1)c1ccc(Cl)cc1 [Compound 6g, N2-{2-[(4-chlorobenzoyl)amino]-1,3-benzothiazol-6-yl}-5-nitrofuramide]",In vivo activity (result in words),M. tuberculosis (H37Rv); 25 mg/kg,bacteriostatic activities
same,Decrease of bacterial load in lung with late control (protections),M. tuberculosis (H37Rv); 25 mg/kg,1.0
same,Log10 CFU/left Lung,M. tuberculosis (H37Rv); 25 mg/kg,6.1 ± 0.48
same,MIC,M. tuberculosis H37Rv [1],0.5 µg/mL
same,Cytotoxicity,AML-12 cell lines,>100 µg/mL
same,Cytotoxicity (result in words),AML-12 cell lines,no cytotoxicity
"CO[C@H]1/C=C/O[C@@]2(C)Oc3c(C)c(O)c4c(O)c(c(/C=N/N5CCN(C)CC5)c(O)c4c3C2=O)NC(=O)/C(C)=C\C=C\[C@H](C)[C@H](O)[C@@H](C)[C@@H](O)[C@@H](C)[C@H](OC(C)=O)[C@@H]1C [RMP, Rifampicin, reference compound]",Log10 CFU/left Lung,M. tuberculosis (H37Rv); 20 mg/kg,2.0 ± 0.41
same,MIC,M. tuberculosis H37Rv [1]; [3],0.25 µg/mL
"O=[N+]([O-])c1ccc(C=NNc2nc3ccc(Cl)cc3s2)s1 [Compound 3n, 5-nitro-2-thiophenecarbaldehyde 2-(6-chloro-1,3-benzothiazole-2-yl)hydrazone]",MIC,M. tuberculosis H37Rv [1]; [3],> 16 µg/mL
"O=C(NNc1nc2ccc(F)cc2s1)c1ccc([N+](=O)[O-])o1 [Compound 4f, N′2-(6-fluoro-1,3-benzothiazol-2-yl)-5-nitro-2-furanecarbohydrazide]",MIC,M. tuberculosis H37Rv [1]; [3],> 16 µg/mL
"N2-(2-{[(E)-3-(4-chlorophenyl)-2-propenoyl]amino}-1,3-benzothiazol-6-yl)-5-nitro-2-furamide [Compound 6w]",Cytotoxicity,AML-12 cell lines,>100 µg/mL
same,Cytotoxicity (result in words),AML-12 cell lines,no cytotoxicity
"O=[N+]([O-])c1ccc(C=NNc2nc3ccc(F)cc3s2)o1 [Compound 3k, 5-nitro-2-furaldehyde 2-(6-fluoro-1,3-benzothiazole-2-yl)hydrazone]",MIC,M. tuberculosis H37Rv [1]; [3],> 16 µg/mL
"O=C(NNc1nc2ccc(C(F)(F)F)cc2s1)c1ccc([N+](=O)[O-])o1 [Compound 4d, N′2-(6-trifluoromethyl-1,3-benzothiazol-2-yl)-5-nitro-2-furancarbohydrazide]",MIC,M. tuberculosis H37Rv [1]; [3],> 16 µg/mL
"COc1ccc2nc(NN=Cc3ccc([N+](=O)[O-])s3)sc2c1 [Compound 3f, 5-nitro-2-thiophenecarbaldehyde 2-(6-methoxy-1,3-benzothiazole-2-yl)hydrazone]",MIC,M. tuberculosis H37Rv [1]; [3],> 16 µg/mL
"O=C(Nc1ccc2nc(NC(=O)c3ccc(F)cc3F)sc2c1)c1ccc([N+](=O)[O-])o1 [Compound 6i, N2-{2-[(2,4-difluorobenzoyl)amino]-1,3-benzothiazol-6-yl}-5-nitrofuramide]",In vivo activity (result in words),M. tuberculosis (H37Rv); 25 mg/kg,bacteriostatic activities
same,Decrease of bacterial load in lung with late control (protections),M. tuberculosis (H37Rv); 25 mg/kg,1.0
same,Log10 CFU/left Lung,M. tuberculosis (H37Rv); 25 mg/kg,6.3 ± 0.37
same,MIC,M. tuberculosis H37Rv [1],0.5 µg/mL
same,Cytotoxicity,AML-12 cell lines,>100 µg/mL
same,Cytotoxicity (result in words),AML-12 cell lines,no cytotoxicity
"O=C(NNc1nc2ccccc2s1)c1ccc([N+](=O)[O-])o1 [Compound 4a, N′2-(1,3-benzothiazol-2-yl)-5-nitro-2-furancarbohydrazide]",MIC,M. tuberculosis H37Rv [1]; [3],> 16 µg/mL
"O=C(NNc1nc2ccc([N+](=O)[O-])cc2s1)c1ccc([N+](=O)[O-])o1 [Compound 4h, N′2-(6-nitro-1,3-benzothiazol-2-yl)-5-nitro-2-furanecarbohydrazide]",MIC,M. tuberculosis H37Rv [1]; [4],16 µg/mL
"Cc1ccc2nc(NN=Cc3ccc([N+](=O)[O-])s3)sc2c1 [Compound 3d, 5-nitro-2-thiophenecarbaldehyde 2-(6-methyl-1,3-benzothiazole-2-yl)hydrazone]",MIC,M. tuberculosis H37Rv [1]; [3],> 16 µg/mL
"COc1ccc2nc(NNC(=O)c3ccc([N+](=O)[O-])o3)sc2c1 [Compound 4c, N′2-(6-methoxy-1,3-benzothiazol-2-yl)-5-nitro-2-furancarbohydrazide]",MIC,M. tuberculosis H37Rv [1]; [3],> 16 µg/mL
"O=[N+]([O-])c1ccc(C=NNc2nc3ccc(C(F)(F)F)cc3s2)s1 [Compound 3h, 5-nitro-2-thiophenecarbaldehyde 2-(6-trifluoromethyl-1,3-benzothiazole-2-yl)hydrazone]",MIC,M. tuberculosis H37Rv [1]; [3],> 16 µg/mL
"NNC(=O)c1ccncc1 [INH, Isoniazid, reference compound]",MIC,M. tuberculosis H37Rv [1]; [3],0.5 µg/mL
"Cc1ccc2nc(NN=Cc3ccc([N+](=O)[O-])o3)sc2c1 [Compound 3c, 5-nitro-2-furaldehyde 2-(6-methyl-1,3-benzothiazole-2-yl)hydrazone]",MIC,M. tuberculosis H37Rv [1]; [3],> 16 µg/mL
"O=C(Nc1nc2ccc(NC(=O)c3ccc([N+](=O)[O-])o3)cc2s1)c1ccc(F)cc1 [Compound 6f, N2-{2-[(4-fluorobenzoyl)amino]-1,3-benzothiazol-6-yl}-5-nitrofuramide]",In vivo activity (result in words),M. tuberculosis (H37Rv); 25 mg/kg,bacteriostatic activities
same,Decrease of bacterial load in lung with late control (protections),M. tuberculosis (H37Rv); 25 mg/kg,1.0
same,Log10 CFU/left Lung,M. tuberculosis (H37Rv); 25 mg/kg,6.0 ± 0.13
same,MIC,M. tuberculosis H37Rv [1],0.5 µg/mL
same,Cytotoxicity,AML-12 cell lines,>100 µg/mL
same,Cytotoxicity (result in words),AML-12 cell lines,no cytotoxicity
"N2-(2-{[(E)-3-phenyl-2-propenoyl]amino}-1,3-benzothiazol-6-yl}-5-nitro-2-furamide [Compound 6q]",MIC,M. tuberculosis H37Rv [1],8.0 µg/mL
same,Cytotoxicity,AML-12 cell lines,>100 µg/mL
same,Cytotoxicity (result in words),AML-12 cell lines,no cytotoxicity
"O=C(NNc1nc2ccc(Cl)cc2s1)c1ccc([N+](=O)[O-])o1 [Compound 4g, N′2-(6-chloro-1,3-benzothiazol-2-yl)-5-nitro-2-furanecarbohydrazide]",MIC,M. tuberculosis H37Rv [1]; [3],> 16 µg/mL
"N3-(6-{[(5-nitro-2-furyl)carbonyl]amino}-1,3-benzothiazol-2-yl)nicotinamide [Compound 6o]",MIC,M. tuberculosis H37Rv [1],4.0 µg/mL
same,Cytotoxicity,AML-12 cell lines,>100 µg/mL
same,Cytotoxicity (result in words),AML-12 cell lines,no cytotoxicity
"O=[N+]([O-])c1ccc2nc(NN=Cc3ccc([N+](=O)[O-])o3)sc2c1 [Compound 3o, 5-nitro-2-furaldehyde 2-(6-nitro-1,3-benzothiazole-2-yl)hydrazone]",MIC,M. tuberculosis H37Rv [1]; [4],16 µg/mL
"Cc1ccc2nc(NNC(=O)c3ccc([N+](=O)[O-])o3)sc2c1 [Compound 4b, N′2-(6-methyl-1,3-benzothiazol-2yl)-5-nitro-2-furancarbohydrazide]",MIC,M. tuberculosis H37Rv [1]; [3],> 16 µg/mL
"O=[N+]([O-])c1ccc(C=NNc2nc3ccc(C(F)(F)F)cc3s2)o1 [Compound 3g, 5-nitro-2-furaldehyde 2-(6-trifluoromethyl-1,3-benzothiazole-2-yl)hydrazone]",MIC,M. tuberculosis H37Rv [1]; [3],> 16 µg/mL
"O=[N+]([O-])c1ccc(C=NNc2nc3ccccc3s2)s1 [Compound 3b, 5-nitro-2-thiophenecarbaldehyde 2-(1,3-benzothiazole-2-yl)hydrazone]",MIC,M. tuberculosis H37Rv [1]; [3],> 16 µg/mL
"O=[N+]([O-])c1ccc(C=NNc2nc3ccc(OC(F)(F)F)cc3s2)s1 [Compound 3j, 5-nitro-2-thiophenecarbaldehyde 2-(6-trifluoromethoxy-1,3-benzothiazole-2-yl)hydrazone]",MIC,M. tuberculosis H37Rv [1]; [3],0.5 to 8 µg/mL
same,MIC,M. tuberculosis H37Rv [1],1 µg/mL
same,Cytotoxicity,AML-12 cell lines,>100 µg/mL
same,Cytotoxicity (result in words),AML-12 cell lines,no cytotoxicity
"O=[N+]([O-])c1ccc2nc(NN=Cc3ccc([N+](=O)[O-])s3)sc2c1 [Compound 3p, 5-nitro-2-thiophenecarbaldehyde 2-(6-nitro-1,3-benzothiazole-2-yl)hydrazone]",MIC,M. tuberculosis H37Rv [1]; [4],> 16 µg/mL
"O=[N+]([O-])c1ccc(C=NNc2nc3ccc(F)cc3s2)s1 [Compound 3l, 5-nitro-2-thiophenecarbaldehyde 2-(6-fluoro-1,3-benzothiazole-2-yl)hydrazone]",MIC,M. tuberculosis H37Rv [1]; [3],> 16 µg/mL
"O=[N+]([O-])c1ccc(C=NNc2nc3ccc(Cl)cc3s2)o1 [Compound 3m, 5-nitro-2-furaldehyde 2-(6-chloro-1,3-benzothiazole-2-yl)hydrazone]",MIC,M. tuberculosis H37Rv [1]; [3],16 µg/mL
"COc1ccc2nc(NN=Cc3ccc([N+](=O)[O-])o3)sc2c1 [Compound 3e, 5-nitro-2-furaldehyde 2-(6-methoxy-1,3-benzothiazole-2-yl)hydrazone]",MIC,M. tuberculosis H37Rv [1]; [3],> 16 µg/mL
"O=C(Nc1nc2ccc(NC(=O)c3ccc([N+](=O)[O-])o3)cc2s1)c1cnccn1 [Compound 6p, N2-(6-{[(5-nitro-2-furyl)carbonyl]amino}-1,3-benzothiazol-2-yl)-2-pyrazinecarboxamide]",MIC,M. tuberculosis H37Rv [1],1 µg/mL
same,Cytotoxicity,AML-12 cell lines,>100 µg/mL
same,Cytotoxicity (result in words),AML-12 cell lines,no cytotoxicity
"O=C(NNc1nc2ccc(OC(F)(F)F)cc2s1)c1ccc([N+](=O)[O-])o1 [Compound 4e, N′2-(6-trifluoromethoxy-1,3-benzothiazol-2-yl)-5-nitro-2-furanecarbohydrazide]",Cytotoxicity,AML-12 cell lines,>100 µg/mL
same,Cytotoxicity (result in words),AML-12 cell lines,no cytotoxicity
